Drawing on patent publication US9834550B2, “Pyridopyrimidinone compounds for modulating the catalytic activity of histone lysine demethylases (KDMs)” (Dong-A Socio Holdings Co., Ltd., priority 2014, dated 2017), this text covers inhibition for 24 molecules.

The assay has as its target T1, Recombinant human JARID1B/KDM5B (Homo sapiens, UniProt Q9UGL1).
T1 construct: purchased Active Motif 31432; host or cells: Sf9 insect cells
In words: LANCE Ultra TR-FRET demethylase assay with FLAG-tagged JARID1B. Format: biochemical. The following applies: 100 nM compound; 500 nM biotinylated H3K4me3 peptide substrate. An outline of the steps: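 Sf9-expressed N-FLAG full-length JARID1B (10–30 nM) preincubated 5 min with compound at 20, 1 or 0.1 uM (1% DMSO), then 500 nM biotin-H3K4me3 peptide, 500 uM 2-OG, 25 uM Fe(II), 2 mM ascorbate added; 30 min at room temperature in Hepes pH 7.5. H3K4me2/1 product read by TR-FRET 665/590 ratio.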
A general note: TR-FRET usually uses a lanthanide donor and a delayed reading to cut background.

T1 sequence (Q9UGL1 whole entry): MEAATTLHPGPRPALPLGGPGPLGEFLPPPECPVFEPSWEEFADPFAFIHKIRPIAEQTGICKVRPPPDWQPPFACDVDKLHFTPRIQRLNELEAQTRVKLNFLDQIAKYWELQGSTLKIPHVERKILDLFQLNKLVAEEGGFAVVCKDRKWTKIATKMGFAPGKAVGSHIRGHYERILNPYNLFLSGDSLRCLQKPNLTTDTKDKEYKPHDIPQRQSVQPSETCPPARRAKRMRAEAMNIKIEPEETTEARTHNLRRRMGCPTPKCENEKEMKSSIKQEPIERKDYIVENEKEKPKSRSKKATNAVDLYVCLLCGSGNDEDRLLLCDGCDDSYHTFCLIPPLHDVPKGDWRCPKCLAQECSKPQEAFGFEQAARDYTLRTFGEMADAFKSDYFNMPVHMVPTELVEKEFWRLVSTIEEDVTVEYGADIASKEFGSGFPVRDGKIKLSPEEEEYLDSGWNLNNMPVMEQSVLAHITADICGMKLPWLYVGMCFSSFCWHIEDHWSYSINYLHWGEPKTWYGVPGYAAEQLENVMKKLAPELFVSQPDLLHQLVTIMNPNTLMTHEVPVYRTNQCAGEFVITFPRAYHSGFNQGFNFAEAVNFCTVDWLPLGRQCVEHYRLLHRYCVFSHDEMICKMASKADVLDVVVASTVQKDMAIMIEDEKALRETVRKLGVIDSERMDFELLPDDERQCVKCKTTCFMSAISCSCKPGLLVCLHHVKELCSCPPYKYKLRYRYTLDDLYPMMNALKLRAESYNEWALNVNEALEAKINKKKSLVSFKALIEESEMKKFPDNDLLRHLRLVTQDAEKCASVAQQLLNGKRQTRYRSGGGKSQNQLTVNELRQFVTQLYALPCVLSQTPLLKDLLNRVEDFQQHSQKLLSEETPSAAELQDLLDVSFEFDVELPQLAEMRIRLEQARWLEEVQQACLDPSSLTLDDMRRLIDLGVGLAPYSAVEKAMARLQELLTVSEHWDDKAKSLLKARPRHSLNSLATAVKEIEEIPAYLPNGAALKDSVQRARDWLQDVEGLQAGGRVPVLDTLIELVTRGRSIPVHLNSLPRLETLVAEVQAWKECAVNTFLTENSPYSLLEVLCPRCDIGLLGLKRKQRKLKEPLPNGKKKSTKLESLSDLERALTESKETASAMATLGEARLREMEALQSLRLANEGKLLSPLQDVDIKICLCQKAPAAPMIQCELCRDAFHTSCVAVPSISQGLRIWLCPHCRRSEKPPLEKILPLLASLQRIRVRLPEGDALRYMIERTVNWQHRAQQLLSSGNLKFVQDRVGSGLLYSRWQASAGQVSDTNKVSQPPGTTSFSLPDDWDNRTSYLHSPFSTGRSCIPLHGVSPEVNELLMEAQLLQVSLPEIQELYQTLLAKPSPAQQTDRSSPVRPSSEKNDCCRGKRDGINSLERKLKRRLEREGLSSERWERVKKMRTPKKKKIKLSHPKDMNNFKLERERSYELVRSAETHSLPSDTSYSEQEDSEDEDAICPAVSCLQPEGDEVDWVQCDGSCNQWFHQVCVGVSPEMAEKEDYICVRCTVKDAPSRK

Broadly, the inhibition is the drop in the measured response relative to a control, in per cent. On to `O=c1[nH]c(COc2ccc(F)c(Cl)c2)nc2c(CNCc3ncco3)nccc12` [Example 179, 2-((3-chloro-4-fluorophenoxy)methyl)-8-(((oxazol-2-ylmethyl)amino)methyl)pyrido[3,4-d]pyrimidin-4(3H)-one], for which the inhibition at 0.1 µM lay in the range of 20 to 50%.
Next, `O=c1[nH]c(COc2ccc(F)c(Cl)c2)nc2c(CNCc3ncccn3)nccc12` [Example 180, 2-((3-chloro-4-fluorophenoxy)methyl)-8-(((pyrimidin-2-ylmethyl)amino)methyl)pyrido[3,4-d]pyrimidin-4(3H)-one]: 20 to 50%.
As for `O=c1[nH]c(COc2ccc(F)c(Cl)c2)nc2c(CNCc3cccs3)nccc12` [Example 181, 2-((3-chloro-4-fluorophenoxy)methyl)-8-(((thiophen-2-ylmethyl)amino)methyl)pyrido[3,4-d]pyrimidin-4(3H)-one], the inhibition at 0.1 µM lay within 20 to 50%.
On to `O=c1[nH]c(COc2ccc(F)c(Cl)c2)nc2c(CNCc3ccnc(Cl)c3)nccc12` [Example 182, 2-((3-chloro-4-fluorophenoxy)methyl)-8-((((2-chloropyridin-4-yl)methyl)amino)methyl)pyrido[3,4-d]pyrimidin-4(3H)-one], for which the inhibition at 0.1 µM was 20 to 50%.
With `Cc1cc(C)n(CCNCc2nccc3c(=O)[nH]c(COc4ccc(F)c(Cl)c4)nc23)n1` [Example 183, 2-((3-chloro-4-fluorophenoxy)methyl)-8-(((2-(3,5-dimethyl-1H-pyrazol-1-yl)ethyl)amino)methyl)pyrido[3,4-d]pyrimidin-4(3H)-one], the inhibition at 0.1 µM was less than 20%.
For `Cc1cccc(CCNCc2nccc3c(=O)[nH]c(COc4ccc(F)c(Cl)c4)nc23)n1` [Example 184, 2-((3-chloro-4-fluorophenoxy)methyl)-8-(((2-(6-methylpyridin-2-yl)ethyl)amino)methyl)pyrido[3,4-d]pyrimidin-4(3H)-one], the inhibition at 0.1 µM is less than 20%.
To `O=C1c2cccnc2CN1CCCNCc1nccc2c(=O)[nH]c(COc3ccc(F)c(Cl)c3)nc12` [Example 185, 2-((3-chloro-4-fluorophenoxy)methyl)-8-(((3-(5-oxo-5,7-dihydro-6H-pyrrolo[3,4-b]pyridin-6-yl)propyl)amino)methyl)pyrido[3,4-d]pyrimidin-4(3H)-one] belongs 20 to 50%; to `O=c1[nH]c(COc2ccc(F)c(Cl)c2)nc2c(CNCCc3ccccn3)nccc12` [Example 186, 2-((3-chloro-4-fluorophenoxy)methyl)-8-(((2-(pyridin-2-yl)ethyl)amino)methyl)pyrido[3,4-d]pyrimidin-4(3H)-one], 20 to 50%.
As for `O=c1[nH]c(COc2ccc(F)c(Cl)c2)nc2c(CNC[C@@H]3CNCCO3)nccc12` [Example 187, (R)-2-((3-chloro-4-fluorophenoxy)methyl)-8-(((morpholin-2-ylmethyl)amino)methyl)pyrido[3,4-d]pyrimidin-4(3H)-one], the inhibition at 0.1 µM is more than 50%.
To `O=c1[nH]c(COc2ccc(F)c(Cl)c2)nc2c(CNCC3CCN(CCO)CC3)nccc12` [Example 188, 2-((3-chloro-4-fluorophenoxy)methyl)-8-((((1-(2-hydroxyethyl)piperidin-4-yl)methyl)amino)methyl)pyrido[3,4-d]pyrimidin-4(3H)-one] belongs more than 50%; to `COCCN1CCC(CNCc2nccc3c(=O)[nH]c(COc4ccc(F)c(Cl)c4)nc23)CC1` [Example 189, 2-((3-chloro-4-fluorophenoxy)methyl)-8-((((1-(2-methoxyethyl)piperidin-4-yl)methyl)amino)methyl)pyrido[3,4-d]pyrimidin-4(3H)-one], more than 50%.
`O=c1[nH]c(COc2ccc(F)c(Cl)c2)nc2c(CNC[C@H]3CNCCO3)nccc12` [Example 190, (S)-2-((3-chloro-4-fluorophenoxy)methyl)-8-(((morpholin-2-ylmethyl)amino)methyl)pyrido[3,4-d]pyrimidin-4(3H)-one]: the inhibition at 0.1 µM is more than 50%.
To `O=c1[nH]c(C2CCCC2)nc2c(CNCC3CCNCC3)nccc12` [Example 191, 2-cyclopentyl-8-(((piperidin-4-ylmethyl)amino)methyl)pyrido[3,4-d]pyrimidin-4(3H)-one] belongs less than 20%.
To `CN1CCC(CNCc2nccc3c(=O)[nH]c(C4CCCC4)nc23)CC1` [Example 192, 2-cyclopentyl-8-((((1-methylpiperidin-4-yl)methyl)amino)methyl)pyrido[3,4-d]pyrimidin-4(3H)-one] belongs less than 20%; to `O=c1[nH]c(C2CCCO2)nc2c(CNCC3CCNCC3)nccc12` (stereo not drawn) [Example 193, 8-(((piperidin-4-ylmethyl)amino)methyl)-2-(tetrahydrofuran-2-yl)pyrido[3,4-d]pyrimidin-4(3H)-one], less than 20%; to `CN1CCC(CNCc2nccc3c(=O)[nH]c(C4CCCO4)nc23)CC1` (stereo not drawn) [Example 194, 8-((((1-methylpiperidin-4-yl)methyl)amino)methyl)-2-(tetrahydrofuran-2-yl)pyrido[3,4-d]pyrimidin-4(3H)-one], less than 20%.
Next, `O=c1[nH]c(C2CCOC2)nc2c(CNCC3CCNCC3)nccc12` (stereo not drawn) [Example 195, 8-(((piperidin-4-ylmethyl)amino)methyl)-2-(tetrahydrofuran-3-yl)pyrido[3,4-d]pyrimidin-4(3H)-one]: less than 20%; `CN1CCC(CNCc2nccc3c(=O)[nH]c(C4CCOC4)nc23)CC1` (stereo not drawn) [Example 196, 8-((((1-methylpiperidin-4-yl)methyl)amino)methyl)-2-(tetrahydrofuran-3-yl)pyrido[3,4-d]pyrimidin-4(3H)-one]: less than 20%.
`O=c1[nH]c(C2Cc3ccccc3O2)nc2c(CNCC3CCNCC3)nccc12` (stereo not drawn) [Example 197, 2-(2,3-dihydrobenzofuran-2-yl)-8-(((piperidin-4-ylmethyl)amino)methyl)pyrido[3,4-d]pyrimidin-4(3H)-one]: the inhibition at 0.1 µM lay in the range of 20 to 50%.
Next, `CN1CCC(CNCc2nccc3c(=O)[nH]c(C4Cc5ccccc5O4)nc23)CC1` (stereo not drawn) [Example 198, 2-(2,3-dihydrobenzofuran-2-yl)-8-((((1-methylpiperidin-4-yl)methyl)amino)methyl)pyrido[3,4-d]pyrimidin-4(3H)-one]: 20 to 50%; `O=c1[nH]c(C2CCc3ccccc3O2)nc2c(CNCC3CCNCC3)nccc12` (stereo not drawn) [Example 199, 2-(chroman-2-yl)-8-(((piperidin-4-ylmethyl)amino)methyl)pyrido[3,4-d]pyrimidin-4(3H)-one]: less than 20%; `CN1CCC(CNCc2nccc3c(=O)[nH]c(C4CCc5ccccc5O4)nc23)CC1` (stereo not drawn) [Example 200, 2-(chroman-2-yl)-8-((((1-methylpiperidin-4-yl)methyl)amino)methyl)pyrido[3,4-d]pyrimidin-4(3H)-one]: 20 to 50%.
Next, `CN1CCC(CNCc2nccc3c(=O)[nH]c(C4Cc5ccccc5C4)nc23)CC1` [Example 201, 2-(2,3-dihydro-1H-inden-2-yl)-8-((((1-methylpiperidin-4-yl)methyl)amino)methyl)pyrido[3,4-d]pyrimidin-4(3H)-one]: less than 20%.
Next, `O=c1[nH]c(COCc2ccccc2)nc2c(CNCC3CCNCC3)nccc12` [Example 202, 2-((benzyloxy)methyl)-8-(((piperidin-4-ylmethyl)amino)methyl)pyrido[3,4-d]pyrimidin-4(3H)-one]: 20 to 50%.
